{"source": "patent US20130028962A1", "about": "“Triggered Cargo Release from Nanoparticle Stabilized Liposomes” (THE REGENTS OF THE UNIVERSITY OF CALIFORNIA, priority 2010, published 2013)", "origin": "cited, not measured here", "system": "MRSA bacteria", "conditions": "against MRSA bacteria", "data": [{"smiles": "CN[C@H](CC(C)C)C(=O)N[C@H]1C(=O)N[C@@H](CC(N)=O)C(=O)N[C@H]2C(=O)N[C@H]3C(=O)N[C@H](C(=O)N[C@H](C(=O)O)c4cc(O)cc(O)c4-c4cc3ccc4O)[C@H](O)c3ccc(c(Cl)c3)Oc3cc2cc(c3O[C@@H]2O[C@H](CO)[C@@H](O)[C@H](O)[C@H]2O[C@H]2C[C@](C)(N)[C@H](O)[C@H](C)O2)Oc2ccc(cc2Cl)[C@H]1O", "note": "[vancomycin]", "values": [{"measurement": "minimal inhibitory concentration (MIC)", "result": "about 2 μg/mL"}]}]}
